Experimental data: US20120219615A1, “Therapeutic Use of a TLR Agonist and Combination Therapy” (The Trustees of the University of Pennsylvania, priority 2010, published 2012)

Experiments:
TLR3 = molecular target: T1, TLR3 (Homo sapiens, UniProt O15455); assay: Activity on TLR3; type: cell-based; details: concentrations up to 25 μM
T1 sequence (O15455 24-904): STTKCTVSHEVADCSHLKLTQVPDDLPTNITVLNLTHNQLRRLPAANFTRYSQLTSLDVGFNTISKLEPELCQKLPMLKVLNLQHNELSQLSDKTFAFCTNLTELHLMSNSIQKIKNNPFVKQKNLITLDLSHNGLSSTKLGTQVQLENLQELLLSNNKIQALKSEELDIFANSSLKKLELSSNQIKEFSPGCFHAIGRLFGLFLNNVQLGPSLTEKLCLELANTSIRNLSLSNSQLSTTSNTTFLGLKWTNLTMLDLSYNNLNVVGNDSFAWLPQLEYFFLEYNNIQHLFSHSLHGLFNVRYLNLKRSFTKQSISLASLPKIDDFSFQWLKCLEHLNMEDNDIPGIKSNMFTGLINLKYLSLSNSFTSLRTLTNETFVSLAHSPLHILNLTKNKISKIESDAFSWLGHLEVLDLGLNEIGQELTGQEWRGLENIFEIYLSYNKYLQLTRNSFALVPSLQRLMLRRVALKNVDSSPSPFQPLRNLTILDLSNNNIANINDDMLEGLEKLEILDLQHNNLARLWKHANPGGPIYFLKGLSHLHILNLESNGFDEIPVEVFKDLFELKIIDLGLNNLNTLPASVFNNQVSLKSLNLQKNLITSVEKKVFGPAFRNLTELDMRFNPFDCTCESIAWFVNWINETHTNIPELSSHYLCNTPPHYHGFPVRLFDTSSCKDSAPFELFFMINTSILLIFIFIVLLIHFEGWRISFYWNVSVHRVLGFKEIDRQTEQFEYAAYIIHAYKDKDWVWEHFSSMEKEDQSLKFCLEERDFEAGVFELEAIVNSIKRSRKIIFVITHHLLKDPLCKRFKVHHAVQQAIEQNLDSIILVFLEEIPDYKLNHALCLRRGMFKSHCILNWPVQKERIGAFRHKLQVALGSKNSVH
Experimental: (§1) The half-maximal effective concentration (EC50) for VTX-2337 activation of TLR8 and TLR7 was assessed in peripheral blood mononuclear cells (PBMCs) from 15 healthy donors and also in HEK293 cells transfected with TLR8 or TLR7 and an NF-κB driven reporter gene. […] Also it was observed that VTX-2337 had no activity on TLR2, TLR3, TLR4, TLR5, TLR6, or TLR9 at concentrations up to 25 μM.

TLR9 = molecular target: T2, TLR9 (Homo sapiens, UniProt Q9NR96); assay: Activity on TLR9; type: cell-based; details: concentrations up to 25 μM
T2 sequence (Q9NR96 26-1032): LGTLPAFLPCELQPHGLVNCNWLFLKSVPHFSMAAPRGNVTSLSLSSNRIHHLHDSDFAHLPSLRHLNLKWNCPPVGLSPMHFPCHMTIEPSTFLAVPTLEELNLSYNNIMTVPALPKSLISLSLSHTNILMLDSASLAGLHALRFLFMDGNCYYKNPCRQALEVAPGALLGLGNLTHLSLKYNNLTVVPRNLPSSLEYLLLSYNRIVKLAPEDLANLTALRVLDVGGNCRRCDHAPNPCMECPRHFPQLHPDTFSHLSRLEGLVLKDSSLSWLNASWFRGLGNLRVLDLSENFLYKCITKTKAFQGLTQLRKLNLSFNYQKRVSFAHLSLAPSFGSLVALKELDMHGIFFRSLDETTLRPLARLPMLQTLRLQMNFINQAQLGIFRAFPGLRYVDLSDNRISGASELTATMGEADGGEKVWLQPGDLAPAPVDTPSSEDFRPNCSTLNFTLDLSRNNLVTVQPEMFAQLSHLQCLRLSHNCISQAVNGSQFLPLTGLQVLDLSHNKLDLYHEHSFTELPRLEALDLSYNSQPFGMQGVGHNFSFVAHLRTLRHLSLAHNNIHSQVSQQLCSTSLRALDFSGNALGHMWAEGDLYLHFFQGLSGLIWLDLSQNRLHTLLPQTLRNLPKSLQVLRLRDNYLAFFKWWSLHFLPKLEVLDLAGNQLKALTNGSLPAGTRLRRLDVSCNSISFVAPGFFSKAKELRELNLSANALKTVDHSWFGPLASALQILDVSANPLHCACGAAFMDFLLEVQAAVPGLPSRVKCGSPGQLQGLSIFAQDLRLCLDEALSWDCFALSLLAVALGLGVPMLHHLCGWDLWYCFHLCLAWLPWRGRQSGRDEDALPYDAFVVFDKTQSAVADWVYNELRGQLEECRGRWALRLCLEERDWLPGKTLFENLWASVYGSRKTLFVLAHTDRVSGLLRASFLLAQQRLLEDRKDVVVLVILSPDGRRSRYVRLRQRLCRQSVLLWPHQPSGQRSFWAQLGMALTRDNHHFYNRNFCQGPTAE
Experimental: as §1

CCCN(CCC)C(=O)C1=Cc2ccc(-c3ccc(C(=O)N4CCCC4)cc3)cc2N=C(N)C1 [VTX-2337, 2-amino-N,N-dipropyl-8-(4-(pyrrolidine-1-carbonyl)phenyl)-3H-benzo[b]azepine-4-carboxamide]
activity on TLR3 (TLR3): no activity
activity on TLR9 (TLR9): no activity
